Data reported in US12378243B2, “Quinoline compounds as inhibitors of KRAS” (Incyte Corporation, priority 2021, dated 2025).

Assays:
KRAS G12D = KRAS G12D (Homo sapiens, UniProt P01116, G12D); assay: GDP-GTP exchange assay, KRAS G12D; format: biochemical; settings: bodipy-loaded KRAS G12D 2.5 nM, GppNHp 500 uM, SOS1 150 nM; 4 hours pre-incubation, 2 hours incubation; read-out: G12D_exchange
Protocol: Inhibitors were serially diluted in DMSO and a volume of 0.1 μL was transferred to the wells of a black low volume 384-well plate. […] The exchange was initiated by the addition of a 5 μL/well volume containing 1 mM GppNHp and 300 nM SOS1 in assay buffer. […] The reaction plates were incubated at ambient temperature for 2 hours, a time estimated for complete GDP-GTP exchange in the absence of inhibitor.
Either GraphPad prism or Genedata Screener SmartFit was used to analyze the data. The IC50 values were derived by fitting the data to a four parameter logistic equation producing a sigmoidal dose-response curve with a variable Hill coefficient.
“NA” indicates IC50 not available.

KRAS G12V mutant = KRAS G12V mutant (Homo sapiens, UniProt P01116, G12V); assay: GDP-GTP exchange assay, KRAS G12V; format: biochemical; settings: bodipy loaded KRAS G12V 2.5 nM; 3 hours incubation after adding GppNHp-SOS1 mixture; read-out: G12V_exchange
Caco-2 cells = assay: Caco2 assay (permeability, A-B); format: in vitro ADME; settings: Papp absorptive direction (A-B), test compound 50 μM, 120 minutes at 37° C.
Protocol: Caco-2 cells are grown at 37° C. in an atmosphere of 5% CO2 in DMEM growth medium supplemented with 10% (v/v) fetal bovine serum, 1% (v/v) nonessential amino acids, penicillin (100 U/mL), and streptomycin (100 μg/mL). Confluent cell monolayers are subcultured every 7 days or 4 days for Caco-2 by treatment with 0.05% trypsin containing […]. Caco-2 cells are seeded in 96-well Transwell plates. The seeding density for Caco-2 cells is 14,000 cells/well. DMEM growth medium is replaced every other day after seeding. Cell monolayers are used for transport assays between 22 and 25 days for Caco-2 cells.
Cell culture medium is removed and replaced with HBSS. To measure the TEER, the HBSS is added into the donor compartment (apical side) and receiver compartment (basolateral side). The TEER is measured by using a REMS Autosampler to ensure the integrity of the cell monolayers. Caco-2 cell monolayers with TEER values ≥300 Ω·cm^2 are used for transport experiments. To determine the Papp in the absorptive direction (A-B), solution of test compound (50 μM) in HBSS is added to the donor compartment (apical side), while HBSS solution with 4% BSA is added to the receiver compartment (basolateral side). The apical volume was 0.075 mL, and the basolateral volume is 0.25 mL. The incubation period is 120 minutes at 37° C. in an atmosphere of 5% CO2. At the end of the incubation period, samples from the donor and receiver sides are removed and an equal volume of acetonitrile is added for protein precipitation. The supernatants are collected after centrifugation (3000 rpm, Allegra X-14R Centrifuge from Beckman Coulter, Indianapolis, IN) for LCMS analysis. The permeability value is determined according to the equation:
[formula] • where the flux rate (F, mass/time) is calculated from the slope of cumulative amounts of compound of interest on the receiver side, SA is the surface area of the cell membrane, VD is the donor volume, and MD is the initial amount of the solution in the donor chamber.
The symbol “+” indicates a Caco-2 value of […], “++” indicates a Caco-2 value of >0.5 but ≤1; and “+++” indicates a Caco-2 value of >1. “NA” indicates IC50 not available.

Chain of KRAS G12V mutant (P01116 1-188 isoform P01116-2 G12V): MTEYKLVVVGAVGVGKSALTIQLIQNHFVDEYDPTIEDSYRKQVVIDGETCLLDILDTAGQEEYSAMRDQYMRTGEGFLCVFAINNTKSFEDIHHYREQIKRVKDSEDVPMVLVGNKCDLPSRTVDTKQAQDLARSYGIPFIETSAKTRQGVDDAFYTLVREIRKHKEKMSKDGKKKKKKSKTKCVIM
Chain of KRAS G12D (P01116 1-188 isoform P01116-2 G12D): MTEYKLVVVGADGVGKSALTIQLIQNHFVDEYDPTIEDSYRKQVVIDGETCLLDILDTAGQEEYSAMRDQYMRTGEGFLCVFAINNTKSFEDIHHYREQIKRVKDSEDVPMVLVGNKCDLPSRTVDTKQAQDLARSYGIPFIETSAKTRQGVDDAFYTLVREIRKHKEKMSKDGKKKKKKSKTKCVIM

**Q.** Which IC50 (KRAS G12D) does the source give for `Cc1cnc(-c2nc3c(F)c(-c4cc(O)cc5ccccc45)c(CCC#N)cc3c3c2cc(C)n3[C@H]2[C@H]3CN[C@@H]2C3)cn1` (single isomer, unassigned) [Example 14] here?
**A.** < 100 nM

**Q.** What about the IC50 (KRAS G12V mutant) of the same molecule?
**A.** < 100 nM

**Q.** And the Caco-2 (Caco-2 cells; Table 3)?
**A.** ++ (a Caco-2 value of >0.5 but ≤1)

**Q.** How did the IC50 (KRAS G12D) turn out when `CN(C)C(=O)N1CCC[C@@H]1c1cc2c(-n3cncn3)nc3c(F)c(-c4cccc(Cl)c4Cl)c(CCC#N)cc3c2n1[C@H]1[C@H]2CN[C@@H]1C2` [Example 28, (2R)-2-(1-((1R,4R,5S)-2-azabicyclo[2.1.1]hexan-5-yl)-8-(2-cyanoethyl)-7-(2,3-dichlorophenyl)-6-fluoro-4-(1H-1,2,4-triazol-1-yl)-1H-pyrrolo[3,2-c]quinolin-2-yl)-N,N-dimethylpyrrolidine-1-carboxamide] was run?
**A.** < 100 nM

**Q.** And the IC50 (KRAS G12V mutant)?
**A.** 100 to 1000 nM

**Q.** And the Caco-2 (Caco-2 cells; Table 4)?
**A.** +++ (a Caco-2 value of >1)

**Q.** Which results are given for `Cc1cc2c(-n3cncn3)nc3c(F)c(-c4cc(O)cc5ccc(F)cc45)c(CCC#N)cc3c2n1[C@H]1[C@H]2CN[C@@H]1C2` [Example 26, 3-(1-((1R,4R,5S)-2-Azabicyclo[2.1.1]hexan-5-yl)-6-fluoro-7-(7-fluoro-3-hydroxynaphthalen-1-yl)-2-methyl-4-(1H-1,2,4-triazol-1-yl)-1H-pyrrolo[3,2-c]quinolin-8-yl)propanenitrile]?
**A.** IC50 (KRAS G12D): < 100 nM; IC50 (KRAS G12V mutant): < 100 nM; Caco-2 (Caco-2 cells; Table 3): + (a Caco-2 value of 50.5)

**Q.** Which IC50 (KRAS G12D) does the source give for `CC(=O)N1CC[C@H](n2ncc3c(O[C@@H](C)[C@@H]4CCCN4C)nc4c(F)c(-c5cccc6cccc(C#N)c56)c(Cl)cc4c32)C[C@H]1CC#N` [Example 25, 8-(1-((2S,4S)-1-acetyl-2-(cyanomethyl)piperidin-4-yl)-8-chloro-6-fluoro-4-((S)-1-((S)-1-methylpyrrolidin-2-yl)ethoxy)-1H-pyrazolo[4,3-c]quinolin-7-yl)-1-naphthonitrile] here?
**A.** < 100 nM

**Q.** And the IC50 (KRAS G12V mutant)?
**A.** < 100 nM

**Q.** And the Caco-2 (Caco-2 cells; Table 3)?
**A.** +++ (a Caco-2 value of >1)

**Q.** Which IC50 (KRAS G12D) does the source give for `CNC(=O)c1ccc(-c2nc3c(F)c(-c4cccc(Cl)c4C)c(CCC#N)cc3c3c2cc([C@@H](C)n2ccncc2=O)n3[C@H]2[C@H]3CN[C@@H]2C3)cn1` (single isomer, unassigned) [Example 36] here?
**A.** < 100 nM

**Q.** What about the IC50 (KRAS G12V mutant) of the same molecule?
**A.** < 100 nM

**Q.** And the Caco-2 (Caco-2 cells; Table 4)?
**A.** +++ (a Caco-2 value of >1)

**Q.** What does the source list for `C[C@H](Oc1nc2c(F)c(-c3cc(O)cc4ccccc34)c(CCC#N)cc2c2c1cc(-c1cccnc1)n2C1C2CNC1C2)[C@@H]1CCCN1C` (stereo partly drawn) [Example 19, 3-(1-((endo)-2-Azabicyclo[2.1.1]hexan-5-yl)-6-fluoro-7-(3-hydroxynaphthalen-1-yl)-4-((S)-1-((S)-1-methylpyrrolidin-2-yl)ethoxy)-2-(pyridin-3-yl)-1H-pyrrolo[3,2-c]quinolin-8-yl)propanenitrile]?
**A.** IC50 (KRAS G12D): < 100 nM; IC50 (KRAS G12V mutant): < 100 nM; Caco-2 (Caco-2 cells; Table 3): + (a Caco-2 value of 50.5)

**Q.** Which results are given for `CC(=O)N1CCC[C@@H]1c1cc2c(-c3ccnc(C)c3)nc3c(F)c(-c4cccc5c4C(C#N)CCC5)c(C)cc3c2n1[C@H]1[C@H]2CN[C@@H]1C2` (single isomer, unassigned) [Example 35]?
**A.** IC50 (KRAS G12D): < 100 nM; IC50 (KRAS G12V mutant): < 100 nM; Caco-2 (Caco-2 cells; Table 4): ++ (a Caco-2 value of >0.5 but ≤1)

**Q.** For `COC(=O)N1[C@@H](c2cc3c(-c4ccc(C(=O)N(C)C)nc4)nc4c(F)c(-c5cccc(Cl)c5Cl)c(CCC#N)cc4c3n2[C@H]2[C@H]3CN[C@@H]2C3)C[C@@H]2C[C@@H]21` [Example 30, Methyl (1S,3R,5S)-3-(1-((1R,4R,5S)-2-azabicyclo[2.1.1]hexan-5-yl)-8-(2-cyanoethyl)-7-(2,3-dichlorophenyl)-4-(6-(dimethylcarbamoyl)pyridin-3-yl)-6-fluoro-1H-pyrrolo[3,2-c]quinolin-2-yl)-2-azabicyclo[3.1.0]hexane-2-carboxylate], which IC50 (KRAS G12D) is on record?
**A.** < 100 nM

**Q.** What about the IC50 (KRAS G12V mutant) of the same molecule?
**A.** < 100 nM

**Q.** What about the Caco-2 (Caco-2 cells; Table 4) of the same molecule?
**A.** +++ (a Caco-2 value of >1)

**Q.** Which results are given for `CNC(=O)c1ccc(-c2nc3c(F)c(-c4cccc(Cl)c4Cl)c(CCC#N)cc3c3c2cc([C@H]2CCCN2C(=O)OC)n3[C@H]2[C@H]3CN[C@@H]2C3)cn1` [Example 33, Methyl (2R)-2-(1-((1R,4R,5S)-2-azabicyclo[2.1.1]hexan-5-yl)-8-(2-cyanoethyl)-7-(2,3-dichlorophenyl)-6-fluoro-4-(6-(methylcarbamoyl)pyridin-3-yl)-1H-pyrrolo[3,2-c]quinolin-2-yl)pyrrolidine-1-carboxylate]?
**A.** IC50 (KRAS G12D): < 100 nM; IC50 (KRAS G12V mutant): < 100 nM; Caco-2 (Caco-2 cells; Table 4): ++ (a Caco-2 value of >0.5 but ≤1)

**Q.** `Cc1nc2c(F)c(-c3cccc(Cl)c3Cl)c(CCC#N)cc2c2c1cc([C@@H](C)NC(=O)N1CC(F)(F)C1)n2[C@H]1[C@H]2CN[C@@H]1C2` [Example 70, N-((1R)-1-(1-((1R,4R,5S)-2-azabicyclo[2.1.1]hexan-5-yl)-8-(2-cyanoethyl)-7-(2,3-dichlorophenyl)-6-fluoro-4-methyl-1H-pyrrolo[3,2-c]quinolin-2-yl)ethyl)-3,3-difluoroazetidine-1-carboxamide] was tested. Which IC50 (KRAS G12D) did it give?
**A.** < 100 nM

**Q.** And the IC50 (KRAS G12V mutant)?
**A.** < 100 nM

**Q.** And the Caco-2 (Caco-2 cells; Table 4)?
**A.** +++ (a Caco-2 value of >1)

**Q.** Which results are given for `CN(C)C1(C)CN(c2nc3c(F)c(-c4cccc5ccc(F)cc45)c(CCC#N)cc3c3c2cc(CN2CCOCC2=O)n3[C@H]2[C@H]3CN[C@@H]2C3)C1` [Example 17, 3-(1-((1R,4R,5S)-2-Azabicyclo[2.1.1]hexan-5-yl)-4-(3-(dimethylamino)-3-methylazetidin-1-yl)-6-fluoro-7-(7-fluoronaphthalen-1-yl)-2-((3-oxomorpholino)methyl)-1H-pyrrolo[3,2-c]quinolin-8-yl)propanenitrile]?
**A.** IC50 (KRAS G12D): < 100 nM; IC50 (KRAS G12V mutant): < 100 nM; Caco-2 (Caco-2 cells; Table 3): + (a Caco-2 value of 50.5)

**Q.** Which results are given for `Cc1nc2c(F)c(-c3cccc(F)c3Cl)c(CCC#N)cc2c2c1cc([C@H]1CCCN1C(=O)C1CC1)n2[C@H]1[C@H]2CN[C@@H]1C2` [Example 34, 3-(1-((1R,4R,5S)-2-Azabicyclo[2.1.1]hexan-5-yl)-7-(2-chloro-3-fluorophenyl)-2-((R)-1-(cyclopropanecarbonyl)pyrrolidin-2-yl)-6-fluoro-4-methyl-1H-pyrrolo[3,2-c]quinolin-8-yl)propanenitrile]?
**A.** IC50 (KRAS G12D): < 100 nM; IC50 (KRAS G12V mutant): 100 to 1000 nM; Caco-2 (Caco-2 cells; Table 4): + (a Caco-2 value of 50.5)

**Q.** Which IC50 (KRAS G12D) does the source give for `Cc1cnc(-c2nc3c(F)c(-c4cccc5ccc(F)cc45)c(CCC#N)cc3c3c2cc([C@@H](C)N2CCOCC2=O)n3[C@H]2[C@H]3CN[C@@H]2C3)cn1` [Example 47, 3-(1-((1R,4R,5S)-2-Azabicyclo[2.1.1]hexan-5-yl)-6-fluoro-7-(7-fluoronaphthalen-1-yl)-4-(5-methylpyrazin-2-yl)-2-((R)-1-(3-oxomorpholino)ethyl)-1H-pyrrolo[3,2-c]quinolin-8-yl)propanenitrile] here?
**A.** < 100 nM

**Q.** And the IC50 (KRAS G12V mutant)?
**A.** < 100 nM

**Q.** What about the Caco-2 (Caco-2 cells; Table 4) of the same molecule?
**A.** +++ (a Caco-2 value of >1)

**Q.** With `Cc1cc2c(O[C@@H](C)[C@@H]3CCCN3C)nc3c(F)c(-c4cc(O)cc5ccc(F)cc45)c(CCC#N)cc3c2n1[C@H]1[C@H]2CN[C@@H]1C2` (single isomer, unassigned) [Example 22] as the molecule, how does the IC50 (KRAS G12D) read?
**A.** < 100 nM

**Q.** What about the IC50 (KRAS G12V mutant) of the same molecule?
**A.** < 100 nM

**Q.** And the Caco-2 (Caco-2 cells; Table 3)?
**A.** + (a Caco-2 value of 50.5)

**Q.** Which IC50 (KRAS G12D) does the source give for `CC(=O)N1CC[C@H](n2ncc3c(O[C@@H](C)[C@@H]4CCCN4C)nc4c(F)c(-c5cccc6cccc(C#N)c56)c(C#N)cc4c32)C[C@H]1CC#N` (single isomer, unassigned) [Example 7] here?
**A.** < 100 nM

**Q.** And the IC50 (KRAS G12V mutant)?
**A.** < 100 nM

**Q.** And the Caco-2 (Caco-2 cells; Table 3)?
**A.** +++ (a Caco-2 value of >1)

**Q.** With `Cc1nc2c(F)c(-c3cccc(Cl)c3Cl)c(CCC#N)cc2c2c1cc([C@@H](C)NS(=O)(=O)C1CC1)n2[C@H]1[C@H]2CN[C@@H]1C2` [Example 58, N-((1R)-1-(1-((1R,4R,5S)-2-Azabicyclo[2.1.1]hexan-5-yl)-8-(2-cyanoethyl)-7-(2,3-dichlorophenyl)-6-fluoro-4-methyl-1H-pyrrolo[3,2-c]quinolin-2-yl)ethyl)cyclopropanesulfonamide] as the molecule, how does the IC50 (KRAS G12D) read?
**A.** < 100 nM

**Q.** And the IC50 (KRAS G12V mutant)?
**A.** < 100 nM

**Q.** What about the Caco-2 (Caco-2 cells; Table 4) of the same molecule?
**A.** ++ (a Caco-2 value of >0.5 but ≤1)
